#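 96-well plates; 48 h exposure; 5 concentrations. Endpoints by linear interpolation between flanking doses. Not reached: highest tested concentration assigned. Here, GI50 denotes the concentration required for 50% inhibition of growth. TGI: total growth inhibition.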
# What was measured:
# Assay in all cases: NCI-60 cell line screen, 48 h
# [1] = system: BT-549 breast
# [2] = system: HCT-15 colon
# [3] = system: HL-60(TB) leukemia
# [4] = system: HS 578T breast
# [5] = system: M14 melanoma
# [6] = system: MCF7 breast
# [7] = system: NCI/ADR-RES ovarian
# [8] = system: PC-3 prostate
# [9] = system: SF-268 CNS
# [10] = system: SF-295 CNS
# [11] = system: SK-MEL-5 melanoma
# [12] = system: SNB-19 CNS
# [13] = system: SR leukemia
# [14] = system: UACC-257 melanoma
# [15] = system: UACC-62 melanoma
# [16] = system: 786-0 renal
# [17] = system: A498 renal
# [18] = system: A549 NSCLC
# [19] = system: ACHN renal
# [20] = system: CAKI-1 renal
# [21] = system: CCRF-CEM leukemia
# [22] = system: COLO 205 colon
# [23] = system: DU-145 prostate
# [24] = system: HCC-2998 colon
# [25] = system: HCT-116 colon
# [26] = system: HOP-62 NSCLC
# [27] = system: HOP-92 NSCLC
# [28] = system: HT29 colon
# [29] = system: IGROV1 ovarian
# [30] = system: K-562 leukemia
# [31] = system: KM12 colon
# [32] = system: LOX IMVI melanoma
# [33] = system: MALME-3M melanoma
# [34] = system: MDA-MB-231 breast
# [35] = system: MDA-MB-435
# [36] = system: MOLT-4 leukemia
# [37] = system: NCI-H226 lung
# [38] = system: NCI-H23 lung
# [39] = system: NCI-H460 lung
# [40] = system: NCI-H522 lung
# [41] = system: OVCAR-3 ovarian
# [42] = system: OVCAR-4 ovarian
# [43] = system: OVCAR-5 ovarian
# [44] = system: OVCAR-8 ovarian
# [45] = system: RPMI-8226 leukemia
# [46] = system: RXF 393 renal
# [47] = system: SF-539 CNS
# [48] = system: SK-MEL-2 melanoma
# [49] = system: SK-MEL-28 melanoma
# [50] = system: SK-OV-3 ovarian
# [51] = system: SN12C renal
# [52] = system: SNB-75 CNS
# [53] = system: SW-620 colon
# [54] = system: T-47D breast
# [55] = system: TK-10 renal
# [56] = system: U251 CNS
# [57] = system: UO-31 renal
structure (smiles),measurement,setting,value
CCOC(=O)c1cc(C(=O)c2cc(OC)cc(OC)c2)n2ncc3ccccc3c12,GI50,[1],1180 nM
same,TGI,[1],> 100 µM
same,GI50,[2],484 nM
same,TGI,[2],> 100 µM
same,GI50,[3],820 nM
same,TGI,[3],> 100 µM
same,GI50,[4],1.84 µM
same,TGI,[4],> 100 µM
same,GI50,[5],485 nM
same,TGI,[5],> 100 µM
same,GI50,[6],0.41 µM
same,TGI,[6],> 100 µM
same,GI50,[7],0.476 µM
same,TGI,[7],> 100 µM
same,GI50,[8],839 nM
same,TGI,[8],> 100 µM
same,GI50,[9],1590 nM
same,TGI,[9],> 100 µM
same,GI50,[10],483 nM
same,TGI,[10],> 100 µM
same,GI50,[11],623 nM
same,TGI,[11],> 100 µM
same,GI50,[12],1570 nM
same,TGI,[12],> 100 µM
same,GI50,[13],442 nM
same,TGI,[13],> 100 µM
same,GI50,[14],> 100 µM
same,TGI,[14],> 100 µM
same,GI50,[15],692 nM
same,TGI,[15],> 100 µM
CC(=O)[O-].CC(=O)[O-].[NH2-].[Pt+2].c1ccncc1,TGI,[16],> 100 µM
same,TGI,[17],> 100 µM
same,TGI,[18],> 100 µM
same,TGI,[19],32.2 µM
same,TGI,[20],> 100 µM
same,TGI,[21],> 100 µM
same,TGI,[22],> 100 µM
same,GI50,[23],4.62 µM
same,TGI,[23],51.9 µM
same,TGI,[24],> 100 µM
same,TGI,[25],> 100 µM
same,TGI,[2],> 100 µM
same,TGI,[3],43.7 µM
same,TGI,[26],> 100 µM
same,TGI,[27],> 100 µM
same,GI50,[4],98.7 µM
same,TGI,[4],> 100 µM
same,TGI,[28],> 100 µM
same,TGI,[29],> 100 µM
same,TGI,[30],71.6 µM
same,TGI,[31],> 100 µM
same,TGI,[32],> 100 µM
same,TGI,[5],> 100 µM
same,TGI,[33],> 100 µM
same,GI50,[6],19.4 µM
same,TGI,[6],65.9 µM
same,GI50,[34],> 100 µM
same,TGI,[34],> 100 µM
same,GI50,[35],53.2 µM
same,TGI,[35],> 100 µM
same,TGI,[36],27.3 µM
same,TGI,[37],> 100 µM
same,TGI,[38],> 100 µM
same,TGI,[39],> 100 µM
same,TGI,[40],44.2 µM
same,GI50,[7],80 µM
same,TGI,[7],> 100 µM
same,TGI,[41],> 100 µM
same,TGI,[42],> 100 µM
same,TGI,[43],> 100 µM
same,TGI,[44],40.1 µM
same,GI50,[8],> 100000 nM
same,TGI,[8],> 100 µM
same,TGI,[45],> 100 µM
same,TGI,[46],64.6 µM
same,TGI,[9],> 100 µM
same,TGI,[10],> 100 µM
same,TGI,[47],55.1 µM
same,TGI,[48],> 100 µM
same,TGI,[49],> 100 µM
same,TGI,[11],> 100 µM
same,TGI,[50],> 100 µM
same,TGI,[51],> 100 µM
same,TGI,[12],> 100 µM
same,TGI,[52],> 100 µM
same,TGI,[53],> 100 µM
same,GI50,[54],59.4 µM
same,TGI,[54],> 100 µM
same,TGI,[55],> 100 µM
same,TGI,[56],> 100 µM
same,TGI,[15],> 100 µM
same,TGI,[57],> 100 µM

# Reference: PubChem BioAssay (NCI)
